According to patent publication US20050032873A1, “3-Amino chroman and 2-amino tetralin derivatives” (Wyeth, priority 2003, published 2005):
Like-named read-outs stand apart in the source and are kept apart here.

What was measured:
[1] = biological target: T1, cloned human 5-HT1A receptors (Homo sapiens, UniProt P08908); assay: 35S-GTPγS binding assay, 5-HT1A function; format: biochemical; conditions: for IC50: antagonist potency, reversal of 8-OH-DPAT, read-out: 5-HT1A Function GTPγS IC50; for EC50: agonist potency
T1 construct: expressed in transfected cells
T1 sequence (P08908 1-422): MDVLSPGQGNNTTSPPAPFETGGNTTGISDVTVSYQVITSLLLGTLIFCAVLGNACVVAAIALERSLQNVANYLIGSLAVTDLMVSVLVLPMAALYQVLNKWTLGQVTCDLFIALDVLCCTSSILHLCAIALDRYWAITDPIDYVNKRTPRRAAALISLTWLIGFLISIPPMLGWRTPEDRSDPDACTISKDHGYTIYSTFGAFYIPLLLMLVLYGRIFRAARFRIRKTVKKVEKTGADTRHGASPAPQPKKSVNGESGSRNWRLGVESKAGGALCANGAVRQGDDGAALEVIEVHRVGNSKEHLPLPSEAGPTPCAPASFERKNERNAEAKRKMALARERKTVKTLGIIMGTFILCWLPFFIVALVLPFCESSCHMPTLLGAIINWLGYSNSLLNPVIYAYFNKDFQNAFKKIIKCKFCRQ

serotonin transporter = biological target: T2, serotonin transporter (Rattus norvegicus, UniProt P31652); assay: 5-HT transporter affinity: displacement of 3H-paroxetine from male rat cortical membranes; format: binding; conditions: displacement of 3H-paroxetine; male rat cortical membranes; read-out: 5-HT Transporter Affinity Ki
T2 construct: displace ^3H-paroxetine from male rat cortical membranes; from tissue; host or cells: male rat cortical membranes
T2 sequence (P31652 whole entry): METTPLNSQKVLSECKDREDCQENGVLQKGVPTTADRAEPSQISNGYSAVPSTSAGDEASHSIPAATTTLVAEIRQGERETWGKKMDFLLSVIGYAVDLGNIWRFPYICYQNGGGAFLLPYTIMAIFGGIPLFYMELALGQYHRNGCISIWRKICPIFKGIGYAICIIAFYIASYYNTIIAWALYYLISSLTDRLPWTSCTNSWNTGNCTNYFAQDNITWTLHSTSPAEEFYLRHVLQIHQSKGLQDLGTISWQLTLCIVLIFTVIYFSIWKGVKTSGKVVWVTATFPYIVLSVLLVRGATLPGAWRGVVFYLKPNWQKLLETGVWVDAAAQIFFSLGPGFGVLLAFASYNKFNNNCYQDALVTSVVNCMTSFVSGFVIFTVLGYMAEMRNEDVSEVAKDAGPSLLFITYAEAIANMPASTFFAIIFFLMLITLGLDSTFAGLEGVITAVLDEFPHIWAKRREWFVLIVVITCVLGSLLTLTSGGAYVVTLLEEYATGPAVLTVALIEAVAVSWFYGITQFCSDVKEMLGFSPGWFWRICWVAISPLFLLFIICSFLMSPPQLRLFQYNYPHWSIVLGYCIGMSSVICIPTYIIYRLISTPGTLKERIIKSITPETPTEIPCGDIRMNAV

5-HT1A receptor [2] = biological target: T3, 5-HT1A receptor (Homo sapiens, UniProt P08908); assay: cAMP accumulation assay, 5-HT1A function; format: cell-based; conditions: for IC50: cells marked IC50 (antagonist), read-out: 5-HT1A Function cAMP IC50; for Emax: in brackets after EC50 or IC50, read-out: 5-HT1A Function cAMP (Emax); for EC50: cells marked EC50 (agonist)
T3 sequence (P08908 1-422): T1 sequence (P08908 1-422)

5-HT1A receptor [3] = biological target: T3, 5-HT1A receptor; assay: 5-HT1A receptor affinity: displacement of [3H] 8-OH-DPAT; format: binding; set-up: expressed in transfected cells; conditions: for Ki: displacement of [3H] 8-OH-DPAT, CHO cells stably transfected with human 5-HT1A receptors, read-out: 5-HT1A Receptor Affinity Ki; for inhibition at 1 µM: read-out: 5-HT1A Receptor Affinity, % @ 1 μM
[4] = maximum inhibitory effect, in brackets after IC50, read-out: 5-HT1A Function GTPγS (Imax)
[5] = maximum stimulatory effect, in brackets after EC50, read-out: 5-HT1A Function GTPγS (Emax)

Row | Compound | melting point | IC50 [1] | Emax [1, 4] | Ki (serotonin transporter) | IC50 (5-HT1A receptor [2]) | Emax (5-HT1A receptor [2]) | Ki (5-HT1A receptor [3]) | inhibition at 1 µM (5-HT1A receptor [3]) | EC50 [1] | Emax [1, 5] | EC50 (5-HT1A receptor [2])
1 | COc1cccc2c(CCCCNC3COc4c(F)ccc(C(N)=O)c4C3)coc12 (stereo not drawn) [Compound 167, 8-fluoro-3-{[4-(7-methoxy-1-benzofuran-3-yl)butyl]amino}chromane-5-carboxamide] | 138 to 141 °C | 1820 nM | 100% | 44.9 nM | 136 nM | 0% | 31.2 nM | – | – | – | –
2 | COc1cccc2c(CCNC3COc4c(F)ccc(C(N)=O)c4C3)coc12 (stereo not drawn) [Compound 156, 8-fluoro-3-{[2-(7-methoxy-1-benzofuran-3-yl)ethyl]amino}chromane-5-carboxamide] | 172 to 174 °C | – | – | 381 nM | – | – | – | 28% | – | – | –
3 | NC(=O)c1cccc2c1CC(NCCCc1c[nH]c3ccc(F)cc13)CO2 (stereo not drawn) [Compound 133, 3-{[3-(5-fluoro-1H-indol-3-yl)propyl]amino}chromane-5-carboxamide] | 153 to 155 °C | – | – | 23.6 nM | – | 84% | 65.1 nM | – | 3000 nM | 100% | 128 nM
4 | O=C(O)c1cccc2c1CC(N(CCCc1c[nH]c3c(F)cc(F)cc13)C1CCC1)CO2 (stereo not drawn) [Compound 137, 3-{cyclobutyl[3-(5,7-difluoro-1H-indol-3-yl)propyl]amino}chromane-5-carboxylic acid] | 130 to 131 °C | – | – | 421 nM | – | – | – | 0% | – | – | –
5 | COc1cccc2c(CCCNC3COc4c(F)ccc(C(N)=O)c4C3)coc12 (stereo not drawn) [Compound 161, 8-fluoro-3-{[3-(7-methoxy-1-benzofuran-3-yl)propyl]amino}chromane-5-carboxamide] | 163 to 166 °C | 3000 nM | 100% | 234 nM | 607 nM | 0% | 43.5 nM | – | – | – | –
6 | NC(=O)c1cccc2c1CC(N(CCCc1c[nH]c3ccc(F)cc13)C1CCC1)CO2 (stereo not drawn) [Compound 134, 3-{cyclobutyl[3-(5-fluoro-1H-indol-3-yl)propyl]amino}chromane-5-carboxamide] | 102 to 105 °C | 184 nM | 69% | 8.67 nM | – | 81% | 1.75 nM | – | 21.8 nM | 28% | 19.2 nM
